Assay results: patent US20200181117A1, “SUBSTITUTED 3-HETEROARYLOXY-1H-PYRAZOLES AND SALTS THEREOF AND THEIR USE AS HERBICIDAL ACTIVE SUBSTANCES” (BAYER CROPSCIENCE AKTIENGESELLSCHAFT, priority 2017, published 2020)

Columns and labels:
Format in all cases: in vivo
[1] = test system: Polygonum convolvulus; assay: Pre-emergence herbicidal action; settings: 1280 g/ha, scored visually after about 3 weeks vs untreated controls
How it was run: (§1)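 Sow seeds in pots, cover with soil. Spray compound (WP or EC, 0.5% additive, 600 l/ha water) onto soil surface at 1280 g/ha. Keep in greenhouse under good growth conditions; score visually at about 3 weeks as % effect versus untreated pots.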

[2] = test system: Stellaria media; assay: Pre-emergence herbicidal action; settings: 1280 g/ha, scored visually after about 3 weeks vs untreated controls
How it was run: as §1

[3] = test system: Abutilon theophrasti; assay: Pre-emergence herbicidal action; settings: 1280 g/ha, scored visually after about 3 weeks vs untreated controls
How it was run: as §1

[4] = test system: Echinochloa crus-galli; assay: Pre-emergence herbicidal action; settings: 1280 g/ha, scored visually after about 3 weeks vs untreated controls
How it was run: as §1

[5] = test system: Amaranthus retroflexus; assay: Pre-emergence herbicidal action; settings: 1280 g/ha, scored visually after about 3 weeks vs untreated controls
How it was run: as §1

[6] = test system: Setaria viridis; assay: Pre-emergence herbicidal action; settings: 1280 g/ha, scored visually after about 3 weeks vs untreated controls
How it was run: as §1

[7] = test system: Matricaria inodora; assay: Pre-emergence herbicidal action; settings: 1280 g/ha, scored visually after about 3 weeks vs untreated controls
How it was run: as §1

[8] = test system: Viola tricolor; assay: Pre-emergence herbicidal action; settings: 1280 g/ha, scored visually after about 3 weeks vs untreated controls
How it was run: as §1

[9] = test system: Veronica persica; assay: Pre-emergence herbicidal action; settings: 1280 g/ha, scored visually after about 3 weeks vs untreated controls
How it was run: as §1

[10] = test system: Hordeum murinum; assay: Pre-emergence herbicidal action; settings: 1280 g/ha, scored visually after about 3 weeks vs untreated controls
How it was run: as §1

[11] = test system: Alopecurus myosuroides; assay: Pre-emergence herbicidal action; settings: 1280 g/ha, scored visually after about 3 weeks vs untreated controls
How it was run: as §1

[12] = test system: Echinochloa crus-galli; assay: Post-emergence herbicidal action; settings: 1280 g/ha, rated visually after about 3 weeks vs untreated controls
How it was run: (§2)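 Greenhouse post-emergence spray at one-leaf stage, 1280 g/ha, 600 l/ha water with 0.5% additive; efficacy rated visually after roughly 3 weeks, 0% meaning like controls and 100% meaning dead plants.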

[13] = test system: Amaranthus retroflexus; assay: Post-emergence herbicidal action; settings: 1280 g/ha, rated visually after about 3 weeks vs untreated controls
How it was run: as §2

[14] = test system: Viola tricolor; assay: Post-emergence herbicidal action; settings: 1280 g/ha, rated visually after about 3 weeks vs untreated controls
How it was run: as §2

[15] = test system: Pharbitis purpurea; assay: Post-emergence herbicidal action; settings: 1280 g/ha, rated visually after about 3 weeks vs untreated controls
How it was run: as §2

[16] = test system: Ipomoea purpurea; assay: Post-emergence herbicidal action; settings: 1280 g/ha, rated visually after about 3 weeks vs untreated controls
How it was run: as §2

[17] = test system: Lolium rigidum; assay: Pre-emergence herbicidal action; settings: 1280 g/ha, scored visually after about 3 weeks vs untreated controls
How it was run: as §1

[18] = test system: Avena fatua; assay: Pre-emergence herbicidal action; settings: 1280 g/ha, scored visually after about 3 weeks vs untreated controls
How it was run: as §1

[19] = test system: Polygonum convolvulus; assay: Post-emergence herbicidal action; settings: 1280 g/ha, rated visually after about 3 weeks vs untreated controls
How it was run: as §2

[20] = test system: Avena fatua; assay: Post-emergence herbicidal action; settings: 1280 g/ha, rated visually after about 3 weeks vs untreated controls
How it was run: as §2

[21] = test system: Setaria viridis; assay: Post-emergence herbicidal action; settings: 1280 g/ha, rated visually after about 3 weeks vs untreated controls
How it was run: as §2

[22] = test system: Alopecurus myosuroides; assay: Post-emergence herbicidal action; settings: 1280 g/ha, rated visually after about 3 weeks vs untreated controls
How it was run: as §2

[23] = test system: Pharbitis purpurea; assay: Pre-emergence herbicidal action; settings: 1280 g/ha, scored visually after about 3 weeks vs untreated controls
How it was run: as §1

[24] = test system: Stellaria media; assay: Post-emergence herbicidal action; settings: 1280 g/ha, rated visually after about 3 weeks vs untreated controls
How it was run: as §2

[25] = test system: Abutilon theophrasti; assay: Post-emergence herbicidal action; settings: 1280 g/ha, rated visually after about 3 weeks vs untreated controls
How it was run: as §2

[26] = test system: Lolium rigidum; assay: Post-emergence herbicidal action; settings: 1280 g/ha, rated visually after about 3 weeks vs untreated controls
How it was run: as §2

Row | SMILES | herbicidal activity on Polygonum convolvulus [1] | herbicidal activity on Stellaria media [2] | herbicidal activity on Abutilon theophrasti [3] | herbicidal activity on Echinochloa crus-galli [4] | herbicidal activity on Amaranthus retroflexus [5] | herbicidal activity on Setaria viridis [6] | herbicidal activity on Matricaria inodora [7] | herbicidal activity on Viola tricolor [8] | herbicidal activity on Veronica persica [9] | herbicidal activity on Hordeum murinum [10] | herbicidal activity on Alopecurus myosuroides [11] | herbicidal activity on Echinochloa crus-galli [12] | herbicidal activity on Amaranthus retroflexus [13] | herbicidal activity on Viola tricolor [14] | herbicidal activity on Pharbitis purpurea [15] | herbicidal activity on Ipomoea purpurea [16] | herbicidal activity on Lolium rigidum [17] | herbicidal activity on Avena fatua [18] | herbicidal activity on Polygonum convolvulus [19] | herbicidal activity on Setaria viridis [21] | other results
1 | COc1cnc(Oc2nn(C)c(C)c2Sc2ccc(Cl)cc2)nc1 [Example I-066] | 90% | 100% | 90% | 100% | 100% | 100% | 100% | 100% | 100% | 100% | 80% | 80% | 80% | 100% | 80% | 80% |  |  |  |  | 
2 | COc1cnc(Oc2nn(C)c(C)c2Sc2ccc(F)cc2)nc1 [Example I-089] | 90% | 100% | 100% | 100% | 100% | 100% | 100% | 100% | 100% | 90% | 90% |  |  |  |  |  | 90% | 80% | 90% | 80% | herbicidal activity on Avena fatua [20]: 80%; herbicidal activity on Alopecurus myosuroides [22]: 90%
3 | CCc1c(Sc2ccc(F)cc2F)c(Oc2ncc(F)cn2)nn1C [Example I-094] | 90% | 100% | 100% | 100% | 100% | 100% | 100% | 100% | 100% | 100% | 100% | 80% | 100% | 100% | 100% |  | 80% |  | 90% |  | herbicidal activity on Pharbitis purpurea [23]: 100%; herbicidal activity on Stellaria media [24]: 100%; herbicidal activity on Abutilon theophrasti [25]: 90%
4 | Cn1cc(Sc2ccc(F)cc2)c(Oc2ncc(Cl)cn2)n1 [Example I-095] | 90% | 100% | 100% | 100% | 100% | 100% | 100% | 100% | 100% | 100% | 100% | 80% | 100% | 100% | 80% | 80% | 100% | 100% |  |  | 
5 | Fc1ccc(Sc2c(Oc3ncccn3)nn3c2CCC3)cc1 [Example I-097] | 100% | 100% | 100% | 100% | 90% | 100% | 100% | 100% | 90% | 90% | 100% | 100% | 80% | 80% | 90% |  |  | 80% |  | 90% | herbicidal activity on Pharbitis purpurea [23]: 90%; herbicidal activity on Abutilon theophrasti [25]: 90%; herbicidal activity on Alopecurus myosuroides [22]: 90%
6 | Cc1c(Sc2ccc(F)cc2Cl)c(Oc2ncccn2)nn1C [Example I-135] | 90% | 100% | 100% | 100% | 100% | 100% | 90% | 100% | 100% | 80% | 100% |  | 100% | 100% | 80% | 80% | 90% | 80% |  |  | herbicidal activity on Stellaria media [24]: 90%
7 | COc1cnc(Oc2nn(C)c(C)c2Sc2ccc(F)c(F)c2)nc1 [Example I-157] | 100% | 100% | 100% | 100% | 100% | 100% | 100% | 100% | 100% | 100% | 100% | 100% | 100% | 100% |  |  | 100% | 100% | 80% | 80% | herbicidal activity on Lolium rigidum [26]: 80%; herbicidal activity on Abutilon theophrasti [25]: 90%; herbicidal activity on Alopecurus myosuroides [22]: 100%
8 | CCc1c(Sc2ccc(F)cc2)c(Oc2ncc(OC)cn2)nn1C [Example I-186] | 80% | 100% |  |  | 100% | 100% | 90% | 100% |  |  |  |  | 100% | 100% | 80% | 80% |  |  |  |  | 
9 | CCc1c(Sc2ccc(F)cc2F)c(Oc2ncc(OC)cn2)nn1C [Example I-207] | 80% | 100% | 80% |  | 100% | 100% |  | 100% | 100% |  |  |  | 90% | 80% | 90% | 90% |  |  |  |  | 
